Tests used:
[1] = Inhibition of Dictyostelium discoideum myosin 2 motor domain-activated ATPase activity by spectrophotometry based PK/LDH coupled ATPase assay
Unconventional myosin-Va = Unconventional myosin-Va (Gallus gallus, UniProt Q02440); assay: Inhibition of chicken myosin 5a assessed as ATP hydrolysis
[2] = Inhibition of Dictyostelium discoideum myosin 1b ATPase activity by spectrophotometric analysis

Sequence of Unconventional myosin-Va (Q02440 whole entry): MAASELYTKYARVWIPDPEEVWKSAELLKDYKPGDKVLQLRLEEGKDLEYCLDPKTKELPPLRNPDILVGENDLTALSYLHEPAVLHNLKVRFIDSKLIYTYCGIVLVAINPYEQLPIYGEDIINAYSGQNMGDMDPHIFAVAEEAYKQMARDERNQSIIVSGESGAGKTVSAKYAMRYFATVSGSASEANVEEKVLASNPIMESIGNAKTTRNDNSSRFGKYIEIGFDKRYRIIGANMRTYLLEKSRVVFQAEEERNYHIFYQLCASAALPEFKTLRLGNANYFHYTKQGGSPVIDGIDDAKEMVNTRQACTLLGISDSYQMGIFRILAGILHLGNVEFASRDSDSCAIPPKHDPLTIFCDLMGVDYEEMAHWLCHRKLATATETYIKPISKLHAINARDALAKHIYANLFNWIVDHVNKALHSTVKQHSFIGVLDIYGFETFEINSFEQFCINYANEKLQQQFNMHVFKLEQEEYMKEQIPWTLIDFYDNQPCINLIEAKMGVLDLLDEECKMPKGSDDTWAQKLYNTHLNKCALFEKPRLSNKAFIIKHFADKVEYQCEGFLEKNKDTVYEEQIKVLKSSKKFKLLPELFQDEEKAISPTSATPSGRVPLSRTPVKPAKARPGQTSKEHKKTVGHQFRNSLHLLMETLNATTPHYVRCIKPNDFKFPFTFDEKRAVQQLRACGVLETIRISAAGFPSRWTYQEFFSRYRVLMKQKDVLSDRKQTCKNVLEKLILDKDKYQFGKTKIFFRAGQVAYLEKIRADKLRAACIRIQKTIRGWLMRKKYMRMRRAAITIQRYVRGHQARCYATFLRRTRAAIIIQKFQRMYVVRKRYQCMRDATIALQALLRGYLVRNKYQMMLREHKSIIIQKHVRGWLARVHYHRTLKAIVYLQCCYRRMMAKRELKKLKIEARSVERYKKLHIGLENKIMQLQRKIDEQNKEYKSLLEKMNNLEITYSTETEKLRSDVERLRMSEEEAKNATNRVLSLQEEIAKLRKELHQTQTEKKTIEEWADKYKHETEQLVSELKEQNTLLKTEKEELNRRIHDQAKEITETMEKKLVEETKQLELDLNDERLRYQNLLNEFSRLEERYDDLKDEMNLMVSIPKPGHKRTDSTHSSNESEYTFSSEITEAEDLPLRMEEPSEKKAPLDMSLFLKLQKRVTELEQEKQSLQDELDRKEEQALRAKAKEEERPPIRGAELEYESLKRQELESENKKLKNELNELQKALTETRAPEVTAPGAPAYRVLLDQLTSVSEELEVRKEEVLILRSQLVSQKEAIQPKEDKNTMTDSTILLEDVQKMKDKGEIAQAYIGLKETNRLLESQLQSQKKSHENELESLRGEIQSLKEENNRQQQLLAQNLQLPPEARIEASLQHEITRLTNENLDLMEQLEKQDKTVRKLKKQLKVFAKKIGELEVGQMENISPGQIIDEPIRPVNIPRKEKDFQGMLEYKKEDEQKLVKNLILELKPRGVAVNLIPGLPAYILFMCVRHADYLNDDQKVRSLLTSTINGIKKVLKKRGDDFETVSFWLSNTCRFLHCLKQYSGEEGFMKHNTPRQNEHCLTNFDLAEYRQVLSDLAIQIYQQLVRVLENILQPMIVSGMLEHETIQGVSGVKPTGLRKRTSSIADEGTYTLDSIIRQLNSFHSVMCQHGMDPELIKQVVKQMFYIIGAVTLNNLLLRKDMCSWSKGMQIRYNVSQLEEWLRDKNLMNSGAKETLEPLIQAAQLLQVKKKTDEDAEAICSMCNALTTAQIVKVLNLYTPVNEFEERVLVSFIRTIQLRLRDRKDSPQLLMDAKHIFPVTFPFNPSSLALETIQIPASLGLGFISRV

Structure (SMILES)	IC50 [1]	IC50 (Unconventional myosin-Va)	IC50 [2]
Oc1ccccc1-c1ccc[nH]1	> 1000 µM	–	–
COc1ccccc1-c1[nH]c(Br)c(Br)c1Br	182 µM	–	–
COc1c(Cl)cc(Cl)cc1-c1[nH]c(Cl)c(Cl)c1Cl	274 µM	–	–
Oc1c(Br)cc(Br)cc1-c1[nH]c(Br)c(Br)c1Br [PENTABROMOPSEUDILIN]	24.4 µM	1.2 µM	–
Oc1c(Cl)cc(Cl)cc1-c1[nH]c(Cl)c(Cl)c1Cl [PENTACHLOROPSEUDILIN]	126 µM	–	1 µM

Continued, in another order:

IC50 [1]	Structure (SMILES)	IC50 (Unconventional myosin-Va)	IC50 [2]
> 1000 µM	COc1ccccc1-c1ccc[nH]1	–	–
91.9 µM	COc1c(Br)cc(Br)cc1-c1[nH]c(Br)c(Br)c1Br	–	–
125 µM	Cn1c(Br)c(Br)c(Br)c1-c1cc(Br)cc(Br)c1O	–	–

— ChEMBL document CHEMBL1781890, “Inhibition of Myosin ATPase activity by halogenated pseudilins: a structure-activity study” (J Med Chem, 2011)
